Among the data in US20230219963A1, “PYRROLO[2,3-D]PYRIMIDINE DERIVATIVES” (Pfizer Inc., priority 2020, published 2023) are IC50 values, retold here.

pIC50: −log10 of the molar value.

For one assay, the target named is JAK1 (Homo sapiens, UniProt P23458). Description: JAK Caliper Enzyme Assay at 1 mM ATP (JAK1). Type of assay: biochemical. On the procedure:
(§1) JAK Caliper Enzyme Assay at 1 mM ATP
(§2) Test article was solubilized in dimethyl sulfoxide (DMSO) to a stock concentration of 30 mM. An 11-point half log dilution series was created in DMSO with a top concentration of 600 μM. […] The compound plates were diluted 1 to 60 resulting in a top final assay compound concentration of 10 μM and a 2% DMSO concentration. Test article and assay controls were added to a 384-well plate. Reaction mixtures contained 20 mM HEPES, pH 7.4, 10 mM magnesium chloride, 0.01% bovine serum albumin (BSA), 0.0005% Tween 20, 1 mM ATP and 1 μM peptide substrate. […] The assays were initiated by the addition of 20 nM JAK1, 1 nM JAK2, 1 nM JAK3 or 1 nM TYK2 enzyme and were incubated at room temperature for three hours for JAK1, 60 minutes for JAK2, 75 minutes for JAK3 or 135 minutes for TYK2. Enzyme concentrations and incubation times were optimized for each new enzyme preps and were modified slightly over time to ensure 20%-30% phosphorylation. The assays were stopped with a final concentration of 10 mM EDTA, 0.1% Coating Reagent and 100 mM HEPES, pH=7.4. The assay plates were placed on a Caliper Life Science Lab Chip 3000 (LC3000) instrument, and each well was sampled using appropriate separation conditions to measure the unphosphorylated and phosphorylated peptide.

The target in a further assay is TYK2 (Homo sapiens, UniProt P29597). Description: JAK Caliper Enzyme Assay at 1 mM ATP (TYK2). It counts as biochemical. On the procedure: as §1, §2
Chain of TYK2 (P29597 whole entry): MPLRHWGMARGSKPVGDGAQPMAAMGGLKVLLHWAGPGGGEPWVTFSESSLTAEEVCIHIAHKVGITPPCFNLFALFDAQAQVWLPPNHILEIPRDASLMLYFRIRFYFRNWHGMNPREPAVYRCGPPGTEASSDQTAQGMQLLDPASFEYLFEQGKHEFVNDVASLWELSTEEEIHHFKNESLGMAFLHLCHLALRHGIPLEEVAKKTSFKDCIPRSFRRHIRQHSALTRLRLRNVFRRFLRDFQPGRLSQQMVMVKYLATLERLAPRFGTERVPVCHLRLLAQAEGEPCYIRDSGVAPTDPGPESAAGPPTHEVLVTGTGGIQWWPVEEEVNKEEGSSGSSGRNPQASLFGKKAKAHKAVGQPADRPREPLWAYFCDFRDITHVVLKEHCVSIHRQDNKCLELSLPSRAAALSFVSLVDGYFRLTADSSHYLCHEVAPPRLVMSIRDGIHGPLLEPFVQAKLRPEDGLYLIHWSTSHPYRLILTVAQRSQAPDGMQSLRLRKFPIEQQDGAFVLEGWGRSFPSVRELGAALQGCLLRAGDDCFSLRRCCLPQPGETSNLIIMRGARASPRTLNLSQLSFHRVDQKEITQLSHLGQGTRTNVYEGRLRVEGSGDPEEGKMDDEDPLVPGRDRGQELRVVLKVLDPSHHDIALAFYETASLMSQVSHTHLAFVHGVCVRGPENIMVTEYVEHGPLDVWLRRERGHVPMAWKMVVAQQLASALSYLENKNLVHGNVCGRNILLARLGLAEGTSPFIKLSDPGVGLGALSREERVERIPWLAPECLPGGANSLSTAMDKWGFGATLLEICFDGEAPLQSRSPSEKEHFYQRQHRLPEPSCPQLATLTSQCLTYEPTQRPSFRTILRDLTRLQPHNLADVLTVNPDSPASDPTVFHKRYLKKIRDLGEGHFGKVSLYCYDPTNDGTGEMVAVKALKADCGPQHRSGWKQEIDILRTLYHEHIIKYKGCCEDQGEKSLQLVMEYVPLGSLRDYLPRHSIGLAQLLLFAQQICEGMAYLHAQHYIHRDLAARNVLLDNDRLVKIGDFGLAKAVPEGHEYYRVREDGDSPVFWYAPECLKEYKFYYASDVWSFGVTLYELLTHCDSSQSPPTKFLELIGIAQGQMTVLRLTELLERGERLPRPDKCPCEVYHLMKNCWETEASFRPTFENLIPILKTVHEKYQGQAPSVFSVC
Another assay relates to IFNg induced pSTATI. Description: IFNγ-induced pSTAT1 in human whole blood (CD14+ cells). Type of assay: cell-based. The conditions noted are these: JAK1/JAK2, read-out: IFNg induced pSTATI, cellular potency IC50. On the procedure:
(§3) Human whole blood was collected from healthy donors via vein puncture into Vacutainer collection tubes containing sodium heparin in accordance with Pfizer protocols (Protocol No. GOHW RDP-01) approved by the Shulman Institutional Review Board. Blood was warmed to 37° C. priorto use. Human whole blood was aliquoted (90 μL/well) in 96-well, deep-well, V-bottom plates and treated with compounds (5 μL/well) at different concentrations up to 60 μM (0.2% DMSO final) at 37° C. for 60 minutes. This was followed by a challenge with IFNα (5000 U/mL), IFNγ (100 ng/mL), IL-6 (50 ng/mL), IL-10 (30 ng/mL), IL-12 (30 ng/mL), IL-15 (30 ng/mL), IL-21 (50 ng/mL), IL-23 (25 ng/mL), IL-27 (1000 ng/mL), EPO (2 U/mL), TSLP (50 ng/mL) or PBS and incubated for 15 minutes. Anti-cell surface antibodies were added 15 minutes prior to cytokine stimulation; anti-CD3-BV421 (0.5 μL/well) to IL-6-treated and TSLP-treated samples and anti-CD14-BV421 (0.5 μL/well) to IFNγ-treated samples. Samples were treated with warm 1×Lyse/Fix buffer (700 μL/well) to terminate activation and further incubated at 37° C. for 20 minutes to lyse red blood cells. Plates were centrifuged at 300×g for 5 minutes, supernatant was aspirated, and cells were washed with 800 μL/well of staining buffer (D-PBS containing 0.1% FBS and 0.01% sodium azide). Washed cell pellets were resuspended in 350 μL/well of prechilled 90% methanol and incubated at 4° C. for 30 minutes. After the removal of 90% methanol, cells were washed once with staining buffer. All samples were finally suspended in 150 μL/well of the desired anti-phospho-STAT antibodies at 1:150 dilution in staining buffer; anti-pSTAT1-AF647 in IFNγ treated samples; anti-pSTAT1-AF488 and anti-pSTAT3-AF647 in IL-6-treated samples, anti-pSTAT3-AF647 in IFNα, IL-10, IL-21, IL-23 and IL-27 treated samples, anti-pSTAT4-AF647 in IL-12 treated samples, anti-pSTAT5-AF-647 in EPO, IL-15 and TSLP-treated samples. Human primary keratinocytes were cultured in DermaLife™ medium with supplement kit to expand cell population. Cell passages 2 to 5 were used in the assays. Cells were harvested at ˜80% confluence, suspended in warm DermaLife™ medium, aliquoted (90 μL/well) in 96-well, deep-well, V-bottom plates, and incubated at 37° C. for 30 minutes. Cells were then treated with compounds (0.0003 to 20 μM) for 60 minutes and followed by stimulation with IL-4 (2 ng/mL) or IL-13 (20 ng/mL) at 37° C. for 15 minutes. […]
(§4) After overnight incubation at 4° C., anti-pSTAT stained samples were transferred into 96-well polypropylene U-bottom plates and flow cytometric analysis was performed on a LSR Fortessa™ equipped with a HTS plate loader. […] Background fluorescence was defined using unstimulated cells and a gate was placed at the foot of the peak to include ˜0.5% gated population. […]

A further assay has as its system IL-6 induced pSTATI. In words: IL-6-induced pSTAT1 in human whole blood (CD3+ cells). The conditions noted are these: JAK1/JAK2, read-out: IL-6 induced pSTATI, cellular potency IC50. It counts as cell-based. On the procedure:
as §3, §4

The next assay has as its system IL-15 induced pSTAT5. In words: IL-15-induced pSTAT5 in human whole blood (lymphocytes). Type of assay: cell-based. The note with it: Lymphocyte, JAK1/JAK3, read-out: IL-15 induced pSTAT5, cellular potency IC50. On the procedure: as §3, §4
A further assay relates to IL-10 induced pSTAT3. In words: IL-10-induced pSTAT3 in human whole blood (lymphocytes). It counts as cell-based. The conditions noted are these: Lymphocyte, JAK1/TYK2, read-out: IL-10 induced pSTAT3, cellular potency IC50. On the procedure:
as §3, §4

A further assay has as its system IL-23 induced pSTAT3. In words: IL-23-induced pSTAT3 in human whole blood (lymphocytes). Type of assay: cell-based. The note with it: Lymphocyte, JAK2/TYK2, read-out: IL-23 induced pSTAT3, cellular potency IC50. On the procedure:
as §3, §4

Usually pIC50 stands for −log10 of the IC50, conventionally taken in molar units.

Chain of JAK1 (P23458 whole entry): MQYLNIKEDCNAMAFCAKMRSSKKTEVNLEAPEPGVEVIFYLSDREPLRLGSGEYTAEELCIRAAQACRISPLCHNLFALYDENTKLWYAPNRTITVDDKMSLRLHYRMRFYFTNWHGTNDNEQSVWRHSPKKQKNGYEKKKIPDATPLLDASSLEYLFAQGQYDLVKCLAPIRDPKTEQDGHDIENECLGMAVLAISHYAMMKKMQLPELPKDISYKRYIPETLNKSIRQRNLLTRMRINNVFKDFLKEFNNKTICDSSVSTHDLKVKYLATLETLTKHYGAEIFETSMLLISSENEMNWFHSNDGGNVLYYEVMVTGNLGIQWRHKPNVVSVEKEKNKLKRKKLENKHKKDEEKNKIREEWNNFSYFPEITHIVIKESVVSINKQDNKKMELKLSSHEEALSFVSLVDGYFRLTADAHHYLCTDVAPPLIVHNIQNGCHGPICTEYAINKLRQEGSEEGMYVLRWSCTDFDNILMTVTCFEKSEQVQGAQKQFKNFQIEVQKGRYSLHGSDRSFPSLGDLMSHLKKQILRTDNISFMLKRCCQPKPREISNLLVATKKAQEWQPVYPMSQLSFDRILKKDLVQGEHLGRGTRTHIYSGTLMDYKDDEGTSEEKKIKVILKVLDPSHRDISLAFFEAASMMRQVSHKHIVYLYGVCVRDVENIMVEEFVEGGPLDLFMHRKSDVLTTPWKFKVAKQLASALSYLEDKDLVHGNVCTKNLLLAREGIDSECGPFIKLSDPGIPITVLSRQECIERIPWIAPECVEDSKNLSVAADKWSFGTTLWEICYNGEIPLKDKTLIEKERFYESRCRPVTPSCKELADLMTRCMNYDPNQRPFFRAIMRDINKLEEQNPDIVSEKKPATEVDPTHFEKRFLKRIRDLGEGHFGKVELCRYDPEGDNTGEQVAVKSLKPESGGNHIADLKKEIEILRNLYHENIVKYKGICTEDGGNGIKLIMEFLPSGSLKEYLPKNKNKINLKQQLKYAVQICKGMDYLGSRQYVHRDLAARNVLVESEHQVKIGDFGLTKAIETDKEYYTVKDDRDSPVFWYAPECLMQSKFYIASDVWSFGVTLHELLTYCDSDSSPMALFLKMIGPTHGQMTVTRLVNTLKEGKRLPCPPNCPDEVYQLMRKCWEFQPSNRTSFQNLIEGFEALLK

Regarding `CN(c1ncnc2[nH]ccc12)[C@H]1C[C@@H](NS(=O)(=O)CCCO)C1` [IB (M1), 3-Hydroxy-N-(cis-3-(methyl(7H-pyrrolo[2,3-d]pyrimidin-4-yl)amino)cyclobutyl)propane-1-sulfonamide], the pIC50 against JAK1 was 7.36; against TYK2, 5.50; in the assay with IFNg induced pSTATI, 5.71; in the assay on IL-6 induced pSTATI it was 6.77; in the assay with IL-15 induced pSTAT5, 6.25; in the assay on IL-10 induced pSTAT3, 6.17. In addition, the pIC50 with IL-23 induced pSTAT3 was 4.58.

As to `C[C@@H](O)CS(=O)(=O)N[C@H]1C[C@@H](N(C)c2ncnc3[nH]ccc23)C1` (single isomer, unassigned) [IC (M3)], the pIC50 against JAK1 was 7.25; at TYK2, 5.47; with IFNg induced pSTATI, 5.37; with IL-6 induced pSTATI it was 6.48; in the assay with IL-15 induced pSTAT5 it was 6.10; in the assay with IL-10 induced pSTAT3, 6.31. The pIC50 with IL-23 induced pSTAT3 is 4.86.

As to `C[C@H](O)CS(=O)(=O)N[C@H]1C[C@@H](N(C)c2ncnc3[nH]ccc23)C1` (single isomer, unassigned) [IA (M2)], the pIC50 against JAK1 is 7.75; against TYK2, 5.92; in the assay on IFNg induced pSTATI it was 5.67; in the assay on IL-6 induced pSTATI, 6.87; with IL-15 induced pSTAT5 it was 6.45; in the assay with IL-10 induced pSTAT3, 6.63. In addition, the pIC50 in the assay with IL-23 induced pSTAT3 is 5.21.
